Results published in US9963442B2, “Pyridones as herbicides” (E I DU PONT DE NEMOURS AND COMPANY, priority 2014, dated 2018).

Assays:
Format in all cases: in vivo
[1] = system: yellow nutsedge (Cyperus esculentus); test: Test C preemergence; settings: scale 0 to 100, 0 is no effect, 100 is complete control
How it was run: (§1)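 Visual rating on a 0–100 scale (100 = complete control) against untreated controls, 13–15 days after treatment in the greenhouse. Test chemical was formulated in a non-phytotoxic solvent with surfactant, applied to soil (loam/sand) at planting or to foliage of 1- to 4-leaf plants.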

[2] = system: winter wheat (Triticum aestivum); test: Test C preemergence; settings: scale 0 to 100, 0 is no effect, 100 is complete control
How it was run: as §1

[3] = system: ragweed (common ragweed, Ambrosia elatior); test: Test C preemergence; settings: scale 0 to 100, 0 is no effect, 100 is complete control
How it was run: as §1

[4] = system: pigweed (Amaranthus retroflexus); test: Test C preemergence; settings: scale 0 to 100, 0 is no effect, 100 is complete control
How it was run: as §1

[5] = system: barnyardgrass (Echinochloa crus-galli); test: Test C preemergence; settings: scale 0 to 100, 0 is no effect, 100 is complete control
How it was run: as §1

corn (Zea mays) = test: Test C preemergence; settings: scale 0 to 100, 0 is no effect, 100 is complete control
How it was run: as §1

[6] = system: morningglory (Ipomoea coccinea); test: Test C preemergence; settings: scale 0 to 100, 0 is no effect, 100 is complete control
How it was run: as §1

[7] = system: blackgrass (Alopecurus myosuroides); test: Test C preemergence; settings: scale 0 to 100, 0 is no effect, 100 is complete control
How it was run: as §1

[8] = system: lambsquarters (Chenopodium album); test: Test C preemergence; settings: scale 0 to 100, 0 is no effect, 100 is complete control
How it was run: as §1

soybean (Glycine max) = test: Test C preemergence; settings: 31 g ai/ha, scale 0 to 100, 0 is no effect, 100 is complete control
How it was run: as §1

[9] = system: oilseed rape (Brassica napus); test: Test C preemergence; settings: scale 0 to 100, 0 is no effect, 100 is complete control
How it was run: as §1

[10] = system: waterhemp (common waterhemp, Amaranthus rudis); test: Test C preemergence; settings: scale 0 to 100, 0 is no effect, 100 is complete control
How it was run: as §1

[11] = system: johnsongrass (Sorghum halepense); test: Test C preemergence; settings: scale 0 to 100, 0 is no effect, 100 is complete control
How it was run: as §1

[12] = system: ragweed (common ragweed, Ambrosia elatior); test: Test A preemergence, directed soil spray; settings: approx. 10 days
How it was run: (§2)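 Seeds sown in loam–sand blend received a directed soil spray preemergence; plants at 2–10 cm, one- to two-leaf stage, were sprayed postemergence. Compounds in non-phytotoxic solvent with surfactant. After about 10 days in greenhouse, injury rated visually versus untreated controls, 0 (no effect) to 100 (complete control).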

[13] = system: Italian ryegrass (Lolium multiflorum); test: Test A preemergence, directed soil spray; settings: approx. 10 days
How it was run: as §2

[14] = system: giant foxtail (Setaria faberii); test: Test A preemergence, directed soil spray; settings: approx. 10 days
How it was run: as §2

[15] = system: pigweed (Amaranthus retroflexus); test: Test A preemergence, directed soil spray; settings: approx. 10 days
How it was run: as §2

[16] = system: barnyardgrass (Echinochloa crus-galli); test: Test A preemergence, directed soil spray; settings: approx. 10 days
How it was run: as §2

kochia (Kochia scoparia) = test: Test A preemergence, directed soil spray; settings: approx. 10 days
How it was run: as §2

[17] = system: yellow nutsedge (Cyperus esculentus); test: Test C postemergence; settings: scale 0 to 100, 0 is no effect, 100 is complete control
How it was run: as §1

[18] = system: giant foxtail (Setaria faberii); test: Test C postemergence; settings: scale 0 to 100, 0 is no effect, 100 is complete control
How it was run: as §1

O=c1cccc(Oc2ncc(Cl)cn2)n1-c1ccc(C(F)(F)F)cc1 [Compound 10]
70: Plant response rating, Oilseed Rape ([9]; 62 g ai/ha) | Plant response rating, Waterhemp ([10]; 16 g ai/ha) | Plant response rating, Johnsongrass ([11]; 125 g ai/ha) | Plant response rating (0 to 100 scale, 0 no effect, 100 complete control), Foxtail, Giant ([14]; 31 g ai/ha)
5: Plant response rating, Wheat ([2]; 62 g ai/ha) | Plant response rating, Wheat ([2]; 125 g ai/ha) | Plant response rating, Corn (corn (Zea mays); 125 g ai/ha) | Plant response rating, Johnsongrass ([11]; 31 g ai/ha) | Plant response rating, Nutsedge, Yellow ([17]; 16 g ai/ha)
30: Plant response rating (0 to 100 scale, 0 no effect, 100 complete control), Kochia (kochia (Kochia scoparia); 31 g ai/ha)
50: Plant response rating (0 to 100 scale, 0 no effect, 100 complete control), Ryegrass, Italian ([13]; 125 g ai/ha) | Plant response rating (0 to 100 scale, 0 no effect, 100 complete control), Pigweed ([15]; 31 g ai/ha) | Plant response rating (0 to 100 scale, 0 no effect, 100 complete control), Barnyardgrass ([16]; 31 g ai/ha)
98: Plant response rating, Barnyardgrass ([5]; 125 g ai/ha)
100: Plant response rating, Pigweed ([4]; 62 g ai/ha) | Plant response rating, Pigweed ([4]; 125 g ai/ha) | Plant response rating, Waterhemp ([10]; 62 g ai/ha) | Plant response rating, Waterhemp ([10]; 125 g ai/ha) | Plant response rating (0 to 100 scale, 0 no effect, 100 complete control), Foxtail, Giant ([14]; 125 g ai/ha) | Plant response rating (0 to 100 scale, 0 no effect, 100 complete control), Pigweed ([15]; 125 g ai/ha)
0: Plant response rating, Nutsedge, Yellow ([1]; 16 g ai/ha) | Plant response rating, Nutsedge, Yellow ([1]; 31 g ai/ha) | Plant response rating, Nutsedge, Yellow ([1]; 62 g ai/ha) | Plant response rating, Nutsedge, Yellow ([1]; 125 g ai/ha) | Plant response rating, Wheat ([2]; 16 g ai/ha) | Plant response rating, Wheat ([2]; 31 g ai/ha) | Plant response rating, Corn (corn (Zea mays); 16 g ai/ha) | Plant response rating, Corn (corn (Zea mays); 31 g ai/ha) | Plant response rating, Morningglory ([6]; 16 g ai/ha) | Plant response rating, Morningglory ([6]; 31 g ai/ha) | Plant response rating, Oilseed Rape ([9]; 16 g ai/ha) | Plant response rating, Johnsongrass ([11]; 16 g ai/ha) | Plant response rating (0 to 100 scale, 0 no effect, 100 complete control), Ragweed ([12]; 31 g ai/ha)
35: Plant response rating, Ragweed ([3]; 16 g ai/ha) | Plant response rating, Lambsquarters ([8]; 16 g ai/ha) | Plant response rating, Lambsquarters ([8]; 62 g ai/ha) | Plant response rating, Johnsongrass ([11]; 62 g ai/ha)
65: Plant response rating, Ragweed ([3]; 125 g ai/ha) | Plant response rating, Pigweed ([4]; 31 g ai/ha)
95: Plant response rating, Blackgrass ([7]; 62 g ai/ha) | Plant response rating, Blackgrass ([7]; 125 g ai/ha) | Plant response rating, Waterhemp ([10]; 31 g ai/ha)
80: Plant response rating, Oilseed Rape ([9]; 125 g ai/ha)
15: Plant response rating, Barnyardgrass ([5]; 16 g ai/ha) | Plant response rating, Morningglory ([6]; 62 g ai/ha) | Plant response rating, Blackgrass ([7]; 16 g ai/ha) | Plant response rating, Nutsedge, Yellow ([17]; 62 g ai/ha) | Plant response rating, Foxtail, Giant ([18]; 31 g ai/ha)
20: Plant response rating, Soybean (soybean (Glycine max)) | Plant response rating, Nutsedge, Yellow ([17]; 125 g ai/ha) | Plant response rating, Foxtail, Giant ([18]; 125 g ai/ha)
55: Plant response rating, Pigweed ([4]; 16 g ai/ha) | Plant response rating, Barnyardgrass ([5]; 31 g ai/ha) | Plant response rating, Morningglory ([6]; 125 g ai/ha)
75: Plant response rating, Barnyardgrass ([5]; 62 g ai/ha) | Plant response rating, Lambsquarters ([8]; 125 g ai/ha)
60: Plant response rating, Blackgrass ([7]; 31 g ai/ha) | Plant response rating (0 to 100 scale, 0 no effect, 100 complete control), Kochia (kochia (Kochia scoparia); 125 g ai/ha)
25: Plant response rating, Ragweed ([3]; 31 g ai/ha) | Plant response rating, Ragweed ([3]; 62 g ai/ha) | Plant response rating, Lambsquarters ([8]; 31 g ai/ha)
10: Plant response rating, Corn (corn (Zea mays); 62 g ai/ha) | Plant response rating, Oilseed Rape ([9]; 31 g ai/ha) | Plant response rating (0 to 100 scale, 0 no effect, 100 complete control), Ragweed ([12]; 125 g ai/ha) | Plant response rating (0 to 100 scale, 0 no effect, 100 complete control), Ryegrass, Italian ([13]; 31 g ai/ha) | Plant response rating, Nutsedge, Yellow ([17]; 31 g ai/ha) | Plant response rating, Foxtail, Giant ([18]; 16 g ai/ha) | Plant response rating, Foxtail, Giant ([18]; 62 g ai/ha)
90: Plant response rating (0 to 100 scale, 0 no effect, 100 complete control), Barnyardgrass ([16]; 125 g ai/ha)
